Assay results: ChEMBL document CHEMBL4513101, “Naegleria gruberi Pathogen Box compounds screening” (2021)
Calls of active or inactive are those of the source. Cut-off read from the data, not from the text of the source: active = inhibition of 80% or more and inactive = less.

Test system: Naegleria gruberi
Experiment: microbe, parasite or virus in culture
Assay type: functional
Conditions: NEG-M, CONC 10 uM
Description: Growth inhibiting activity of Naegleria gruberi in vitro

| Structure (SMILES) | inhibition at 10 µM |
| --- | --- |
| CC(C(=O)N1CCCC1)N1CCN(S(=O)(=O)c2ccc(C(C)(C)C)cc2)CC1 (stereo unspecified) | 4.7% (not active) |
| Cc1cc(C(=O)Nc2ccc(-c3ccccc3)cc2)no1 | 35.7% (not active) |
| O=C(Nc1ccccc1)c1ccc(-c2cc3ccncc3cc2OC2CCNCC2)s1 | 12.6% (not active) |
| NCC(c1cccs1)S(=O)(=O)c1ccccc1 (stereo unspecified) | 7.1% (not active) |
| O=C(Nc1ccc(N2CCNCC2)nc1)c1oc(-c2ccccc2)nc1C(F)(F)F | 15.4% (not active) |
| Cc1cc(Nc2ccncc2)n2nc(C)c(-c3ccccc3Cl)c2n1 | 27.7% (not active) |
| Nc1cccnc1Nc1ccc(Cl)cc1 | 4.1% (not active) |
| NCC(=O)N1CCn2c(nc(-c3ccccc3)c2Nc2ccc3c(c2)OCO3)C1 | 8.3% (not active) |
| FC(F)(F)c1ccc(N(c2cccnc2)C2CCN(c3ccc(C(F)(F)F)cn3)CC2)cc1 | 80.4% (active) |
| COc1cc(CN2CCC3(C=Cc4ccccc43)CC2)cc2c1OCO2 | 38.6% (not active) |
| COc1ccc(C2=NN(C3CCCCCC3)C(=O)C2(C)C)cc1OCCCCOc1ccc(-c2nn[nH]n2)cc1 | 36.8% (not active) |
| Cc1nnc(NCc2cccc(Cl)c2)c2ccccc12 | 38.4% (not active) |
| COc1ccccc1CNC(=O)c1cc(C2CC2)nc2c1cnn2C(C)C | 49.8% (not active) |
| Cc1cc(C)nc(-n2nc(C)cc2Nc2ccccc2)n1 | 31.5% (not active) |
| O=C(C1CCN(c2nnc(-n3cccc3)s2)CC1)N1CCC(Cc2ccccc2)CC1 | 31.1% (not active) |
| CNC(=O)CNc1nc(-c2ccccn2)nc2scc(-c3ccccc3)c12 | 22.6% (not active) |
| NCCCC(N)(C(=O)O)C(F)F (stereo unspecified) [EFLORNITHINE] | 33.6% (not active) |
| CCCc1ccc(S(=O)(=O)Nc2ccc(CN3CCN(CC4CC4)CC3)cc2)cc1 | 30.3% (not active) |

| Structure (SMILES) | inhibition at 10 µM |
| --- | --- |
| Cc1ccc(S(=O)(=O)n2cc(-c3ccnc(N)c3)c3cc(Br)cnc32)cc1 | 53.9% (not active) |
| COc1ccc(-c2cnc3ccc(N4CCCC4)nn23)cc1OC | 51.2% (not active) |
| O=C(Cn1ccnc1[N+](=O)[O-])NCc1ccccc1 [BENZNIDAZOLE] | 37.4% (not active) |
| CN1CCN(c2cc(-c3ccc(F)cc3)nc(-c3ccncc3)n2)CC1 | 30% (not active) |
| Cn1c(=O)c2c(S(C)(=O)=O)snc2n(C)c1=O | 72.3% (not active) |
| Cc1cccc(NC(=O)c2cc(S(=O)(=O)N(C)c3ccc(F)cc3)ccc2Cl)n1 | 42.3% (not active) |
| CCc1ccc(S(=O)(=O)Nc2cc(CN3CCN(CCC(C)C)CC3)ccc2C)cc1 | 48.7% (not active) |
| COc1cc(C2=NCCN2)ccc1-c1cn(-c2cccc(C3=NCCN3)c2)nn1 | 20.1% (not active) |
| O=C(NCc1ccoc1)N1CCN(Cc2ccc3c(c2)OCO3)CC1 | 28.7% (not active) |
| NC(=O)c1cc(Br)ccc1OCCOc1ccccc1 | 36.1% (not active) |
| Cc1cc(Cl)c(S(=O)(=O)N2CCCC2)cc1OCC(=O)NC1CCCCC1 | 11% (not active) |
| COc1nc2ccc(Br)cc2cc1[C@@H](c1ccccc1)[C@@](O)(CCN(C)C)c1cccc2ccccc12 [BEDAQUILINE] | 56.3% (not active) |
| COc1ccc(-c2cnc3ccc(NCc4ccc(S(N)(=O)=O)cc4)nn23)cn1 | 10.2% (not active) |
| CC(c1cc(Cl)cc(Cl)c1)N(C)c1ncc2c(N)nc(N)nc2n1 (stereo unspecified) | 11% (not active) |
| COC(=O)c1ccc(F)cc1NS(=O)(=O)c1cccc(-c2cnn(Cc3ccccc3)c2)c1 | 26.2% (not active) |
| O=C1COCc2ccc(Br)cc2N1Cc1ccc(C(F)(F)F)cc1 | 26.7% (not active) |
| Nc1ncc(Br)cc1-c1nc2cc(Cl)cnc2[nH]1 | 15.3% (not active) |
| Cc1nc2ccccn2c1C(=O)NCc1ccc(Cl)cc1 | 37.8% (not active) |
